# How the values were obtained:
# Assay in all cases: Eurofins kinase selectivity profile against 380 other human recombinant kinases (Table S2)
# Format in all cases: biochemical
# [1] = biological target: T1, 380 human recombinant protein kinases (Homo sapiens, UniProt P22694); conditions: PKAcβ(h), read-out: Inhibition rate
# T1 construct: purchased Eurofins (Celle Lévescault)
# Outline: (§1)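 Selectivity panel of 380 human recombinant protein kinases, screened by Eurofins at a range of concentrations.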
# [2] = biological target: T2, 380 human recombinant protein kinases (Homo sapiens, UniProt Q9H1R3); conditions: MYLK2(h), read-out: Inhibition rate
# T2 construct: purchased Eurofins (Celle Lévescault)
# Outline: as §1
# [3] = biological target: T3, 380 human recombinant protein kinases (Homo sapiens, UniProt O00311); conditions: Cdc7/cyclinB1(h), read-out: Inhibition rate
# T3 construct: purchased Eurofins (Celle Lévescault)
# T3 sequence (O00311 whole entry): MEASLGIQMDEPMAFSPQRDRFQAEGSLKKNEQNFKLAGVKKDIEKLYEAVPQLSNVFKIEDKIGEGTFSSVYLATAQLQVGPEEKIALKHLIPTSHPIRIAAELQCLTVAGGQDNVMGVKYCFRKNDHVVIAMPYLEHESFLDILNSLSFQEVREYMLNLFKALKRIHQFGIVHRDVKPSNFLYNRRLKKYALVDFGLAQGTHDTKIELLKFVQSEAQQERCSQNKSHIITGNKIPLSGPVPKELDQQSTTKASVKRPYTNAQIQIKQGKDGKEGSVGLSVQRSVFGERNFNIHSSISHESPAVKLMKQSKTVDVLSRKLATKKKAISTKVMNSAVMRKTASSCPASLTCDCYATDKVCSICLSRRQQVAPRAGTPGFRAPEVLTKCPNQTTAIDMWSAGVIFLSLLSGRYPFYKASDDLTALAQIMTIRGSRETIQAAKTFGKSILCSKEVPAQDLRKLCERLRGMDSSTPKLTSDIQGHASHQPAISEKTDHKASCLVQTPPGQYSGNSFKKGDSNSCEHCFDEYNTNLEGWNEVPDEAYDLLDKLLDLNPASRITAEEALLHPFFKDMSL
# Outline: as §1
# [4] = biological target: T4, 380 human recombinant protein kinases (Homo sapiens, UniProt Q99986); conditions: VRK1(h), read-out: Inhibition rate (%)
# T4 construct: purchased Eurofins (Celle Lévescault)
# T4 sequence (Q99986 1-396): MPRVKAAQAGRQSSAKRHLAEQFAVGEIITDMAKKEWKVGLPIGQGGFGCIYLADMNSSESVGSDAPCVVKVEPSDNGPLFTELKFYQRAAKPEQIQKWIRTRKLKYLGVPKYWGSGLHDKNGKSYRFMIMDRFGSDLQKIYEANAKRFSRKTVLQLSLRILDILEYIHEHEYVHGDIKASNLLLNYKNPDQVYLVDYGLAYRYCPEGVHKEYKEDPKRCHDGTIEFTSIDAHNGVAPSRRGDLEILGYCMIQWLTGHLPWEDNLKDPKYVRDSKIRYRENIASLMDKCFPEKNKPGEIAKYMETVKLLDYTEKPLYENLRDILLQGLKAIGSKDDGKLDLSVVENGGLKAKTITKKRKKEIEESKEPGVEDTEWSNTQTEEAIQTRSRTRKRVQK
# Outline: as §1
# [5] = biological target: T5, 380 human recombinant protein kinases (Homo sapiens, UniProt P35968); conditions: KDR(h), read-out: Inhibition rate
# T5 construct: purchased Eurofins (Celle Lévescault)
# T5 sequence (P35968 20-1356): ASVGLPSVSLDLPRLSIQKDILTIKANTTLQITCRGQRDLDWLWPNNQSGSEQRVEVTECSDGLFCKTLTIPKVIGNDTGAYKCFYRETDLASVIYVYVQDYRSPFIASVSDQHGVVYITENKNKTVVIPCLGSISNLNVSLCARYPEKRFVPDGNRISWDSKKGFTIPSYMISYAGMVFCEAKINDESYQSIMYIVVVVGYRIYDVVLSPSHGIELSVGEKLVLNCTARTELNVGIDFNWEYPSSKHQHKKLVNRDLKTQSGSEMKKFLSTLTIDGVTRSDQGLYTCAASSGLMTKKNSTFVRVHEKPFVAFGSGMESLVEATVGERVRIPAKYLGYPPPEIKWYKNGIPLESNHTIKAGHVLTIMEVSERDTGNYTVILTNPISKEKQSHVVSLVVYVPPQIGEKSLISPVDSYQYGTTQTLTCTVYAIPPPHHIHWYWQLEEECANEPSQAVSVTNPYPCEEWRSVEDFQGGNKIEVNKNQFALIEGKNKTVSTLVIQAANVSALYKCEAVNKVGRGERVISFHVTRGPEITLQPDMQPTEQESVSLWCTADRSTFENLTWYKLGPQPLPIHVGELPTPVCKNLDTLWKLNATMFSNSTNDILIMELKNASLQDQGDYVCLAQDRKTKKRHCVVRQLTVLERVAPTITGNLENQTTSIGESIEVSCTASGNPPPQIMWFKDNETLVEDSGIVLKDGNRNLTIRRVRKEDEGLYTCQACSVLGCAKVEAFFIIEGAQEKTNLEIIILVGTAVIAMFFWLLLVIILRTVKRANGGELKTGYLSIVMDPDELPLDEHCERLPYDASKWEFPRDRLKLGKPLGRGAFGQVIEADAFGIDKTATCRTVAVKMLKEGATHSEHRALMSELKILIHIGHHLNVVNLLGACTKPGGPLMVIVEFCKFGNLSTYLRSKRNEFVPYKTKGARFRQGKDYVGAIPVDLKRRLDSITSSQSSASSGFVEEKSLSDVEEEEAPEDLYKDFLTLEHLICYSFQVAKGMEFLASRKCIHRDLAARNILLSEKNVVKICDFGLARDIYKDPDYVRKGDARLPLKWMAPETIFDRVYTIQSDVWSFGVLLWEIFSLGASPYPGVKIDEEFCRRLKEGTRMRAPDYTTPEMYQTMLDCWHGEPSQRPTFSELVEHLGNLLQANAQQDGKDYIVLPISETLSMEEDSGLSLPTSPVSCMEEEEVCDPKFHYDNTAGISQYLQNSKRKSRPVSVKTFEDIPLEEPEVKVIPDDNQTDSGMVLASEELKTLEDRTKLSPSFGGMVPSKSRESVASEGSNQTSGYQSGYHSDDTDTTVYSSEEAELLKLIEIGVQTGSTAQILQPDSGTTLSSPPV
# Outline: as §1
# [6] = biological target: T6, 380 human recombinant protein kinases (Homo sapiens, UniProt Q9H3Y6); conditions: SRMS(h), read-out: Inhibition rate (%)
# T6 construct: purchased Eurofins (Celle Lévescault)
# T6 sequence (Q9H3Y6 whole entry): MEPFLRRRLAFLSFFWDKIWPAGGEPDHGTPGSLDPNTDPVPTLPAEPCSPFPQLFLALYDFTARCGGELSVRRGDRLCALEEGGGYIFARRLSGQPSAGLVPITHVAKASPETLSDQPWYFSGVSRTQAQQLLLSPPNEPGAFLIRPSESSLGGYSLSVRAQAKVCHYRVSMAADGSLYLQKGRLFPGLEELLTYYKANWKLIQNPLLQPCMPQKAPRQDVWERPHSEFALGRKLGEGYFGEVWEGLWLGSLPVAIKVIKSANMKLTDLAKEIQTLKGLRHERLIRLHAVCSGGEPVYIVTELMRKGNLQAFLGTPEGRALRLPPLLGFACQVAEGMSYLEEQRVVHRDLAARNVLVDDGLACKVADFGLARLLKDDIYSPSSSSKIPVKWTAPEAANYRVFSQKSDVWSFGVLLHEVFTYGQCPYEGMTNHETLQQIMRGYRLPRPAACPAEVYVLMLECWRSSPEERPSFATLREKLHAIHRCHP
# Outline: as §1
# [7] = biological target: T7, 380 human recombinant protein kinases (Homo sapiens, UniProt P23458); conditions: JAK1(h), read-out: Inhibition rate
# T7 construct: purchased Eurofins (Celle Lévescault)
# Outline: as §1
# [8] = biological target: T8, 380 human recombinant protein kinases (Homo sapiens, UniProt Q9NWZ3); conditions: IRAK4(h), read-out: Inhibition rate
# T8 construct: purchased Eurofins (Celle Lévescault)
# T8 sequence (Q9NWZ3 1-460): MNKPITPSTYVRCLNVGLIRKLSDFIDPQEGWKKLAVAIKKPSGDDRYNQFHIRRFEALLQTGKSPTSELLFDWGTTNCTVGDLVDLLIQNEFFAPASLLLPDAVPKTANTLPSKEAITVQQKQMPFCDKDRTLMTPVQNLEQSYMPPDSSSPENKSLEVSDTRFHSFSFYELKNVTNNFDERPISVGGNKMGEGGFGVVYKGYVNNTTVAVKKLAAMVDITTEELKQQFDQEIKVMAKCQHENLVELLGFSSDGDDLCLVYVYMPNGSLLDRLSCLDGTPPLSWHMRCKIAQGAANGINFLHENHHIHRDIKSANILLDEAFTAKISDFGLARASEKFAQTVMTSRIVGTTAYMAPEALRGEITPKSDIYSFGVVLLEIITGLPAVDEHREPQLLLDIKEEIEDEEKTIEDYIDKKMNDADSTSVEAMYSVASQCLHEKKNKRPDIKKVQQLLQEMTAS
# Outline: as §1
# [9] = biological target: T9, 380 human recombinant protein kinases (Homo sapiens, UniProt Q9UKE5); conditions: TNIK(h), read-out: Inhibition rate (%)
# T9 construct: purchased Eurofins (Celle Lévescault)
# T9 sequence (Q9UKE5 whole entry): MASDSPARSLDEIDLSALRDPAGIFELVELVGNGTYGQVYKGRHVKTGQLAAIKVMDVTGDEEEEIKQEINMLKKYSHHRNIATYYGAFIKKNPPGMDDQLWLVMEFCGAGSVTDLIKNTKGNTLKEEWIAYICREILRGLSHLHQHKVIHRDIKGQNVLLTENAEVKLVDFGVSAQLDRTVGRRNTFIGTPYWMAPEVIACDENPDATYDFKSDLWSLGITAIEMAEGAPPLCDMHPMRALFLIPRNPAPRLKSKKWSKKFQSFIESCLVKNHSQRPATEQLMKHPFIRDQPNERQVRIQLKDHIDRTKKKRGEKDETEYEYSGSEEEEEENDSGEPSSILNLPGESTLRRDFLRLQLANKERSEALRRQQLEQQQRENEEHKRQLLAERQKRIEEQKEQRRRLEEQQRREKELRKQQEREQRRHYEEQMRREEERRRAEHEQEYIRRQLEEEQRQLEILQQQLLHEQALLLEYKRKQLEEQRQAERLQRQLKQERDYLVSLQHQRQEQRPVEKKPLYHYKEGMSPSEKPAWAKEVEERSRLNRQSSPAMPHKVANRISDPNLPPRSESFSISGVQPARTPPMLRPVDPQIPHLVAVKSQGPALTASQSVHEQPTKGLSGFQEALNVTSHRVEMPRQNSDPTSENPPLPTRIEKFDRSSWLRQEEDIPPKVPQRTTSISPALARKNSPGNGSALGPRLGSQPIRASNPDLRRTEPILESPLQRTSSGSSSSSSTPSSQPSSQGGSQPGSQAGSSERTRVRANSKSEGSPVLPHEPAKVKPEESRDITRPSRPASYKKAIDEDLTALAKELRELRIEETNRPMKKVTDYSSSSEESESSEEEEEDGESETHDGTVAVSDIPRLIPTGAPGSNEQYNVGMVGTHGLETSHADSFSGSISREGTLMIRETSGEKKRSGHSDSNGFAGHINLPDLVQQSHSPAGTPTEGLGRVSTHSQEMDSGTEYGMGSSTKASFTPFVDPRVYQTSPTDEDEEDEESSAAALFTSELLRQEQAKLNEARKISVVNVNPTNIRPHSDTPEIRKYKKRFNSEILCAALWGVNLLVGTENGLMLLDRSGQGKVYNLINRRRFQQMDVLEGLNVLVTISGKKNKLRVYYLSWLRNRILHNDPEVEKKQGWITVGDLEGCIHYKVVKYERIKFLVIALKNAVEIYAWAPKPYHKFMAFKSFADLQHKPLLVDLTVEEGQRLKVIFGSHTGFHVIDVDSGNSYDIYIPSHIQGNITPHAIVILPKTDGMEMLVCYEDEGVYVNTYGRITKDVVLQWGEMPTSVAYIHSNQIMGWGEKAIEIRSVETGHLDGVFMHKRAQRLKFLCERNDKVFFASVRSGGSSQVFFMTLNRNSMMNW
# Outline: as §1
# [10] = biological target: T10, 380 human recombinant protein kinases (Homo sapiens, UniProt Q9NY57); conditions: STK32B(h), read-out: Inhibition rate (%)
# T10 construct: purchased Eurofins (Celle Lévescault)
# T10 sequence (Q9NY57 whole entry): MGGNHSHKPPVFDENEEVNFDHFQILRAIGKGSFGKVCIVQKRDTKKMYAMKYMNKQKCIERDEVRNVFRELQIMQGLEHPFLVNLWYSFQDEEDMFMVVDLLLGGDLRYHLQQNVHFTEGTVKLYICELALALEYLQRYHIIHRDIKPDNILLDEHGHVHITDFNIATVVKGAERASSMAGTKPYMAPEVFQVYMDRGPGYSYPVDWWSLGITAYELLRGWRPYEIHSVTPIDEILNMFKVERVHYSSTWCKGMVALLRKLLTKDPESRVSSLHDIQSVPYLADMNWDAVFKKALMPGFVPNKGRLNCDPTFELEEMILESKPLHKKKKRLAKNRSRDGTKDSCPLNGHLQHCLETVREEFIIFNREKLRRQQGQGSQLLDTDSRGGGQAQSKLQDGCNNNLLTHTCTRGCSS
# Outline: as §1
# [11] = biological target: T11, 380 human recombinant protein kinases (Homo sapiens, UniProt Q9BQI3); conditions: HRI(h), read-out: Inhibition rate
# T11 construct: purchased Eurofins (Celle Lévescault)
# T11 sequence (Q9BQI3 whole entry): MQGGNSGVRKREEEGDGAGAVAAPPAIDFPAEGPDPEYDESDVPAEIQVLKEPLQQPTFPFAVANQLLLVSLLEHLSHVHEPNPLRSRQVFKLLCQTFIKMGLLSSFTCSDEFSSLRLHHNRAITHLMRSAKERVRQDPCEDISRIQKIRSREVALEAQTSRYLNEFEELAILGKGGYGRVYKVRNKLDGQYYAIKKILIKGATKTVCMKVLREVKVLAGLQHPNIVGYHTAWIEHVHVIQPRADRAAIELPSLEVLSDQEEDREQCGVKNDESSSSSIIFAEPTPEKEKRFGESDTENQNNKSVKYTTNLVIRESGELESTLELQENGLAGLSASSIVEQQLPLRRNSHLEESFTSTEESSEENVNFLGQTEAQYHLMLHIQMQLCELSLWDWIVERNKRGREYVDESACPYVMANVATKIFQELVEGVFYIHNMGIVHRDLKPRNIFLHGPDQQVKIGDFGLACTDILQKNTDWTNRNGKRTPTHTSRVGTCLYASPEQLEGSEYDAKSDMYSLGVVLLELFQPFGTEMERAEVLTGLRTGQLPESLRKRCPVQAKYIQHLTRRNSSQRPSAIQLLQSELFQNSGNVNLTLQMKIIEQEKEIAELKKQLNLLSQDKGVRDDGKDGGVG
# Outline: as §1
smiles,measurement,setting,value
C=CC(=O)Nc1cc(-c2cc(-c3cc4c([nH]3)CCNC4=O)ccn2)ccc1OC(F)(F)F [compound 11],inhibition at 0.01 µM,[1]; 10 nM,-11%
same,inhibition at 0.1 µM,[1]; 100 nM,-4%
same,inhibition at 1 µM,[1]; 1000 nM,5%
same,inhibition at 0.01 µM,[2]; 10 nM,-2%
same,inhibition at 0.1 µM,[2]; 100 nM,6%
same,inhibition at 1 µM,[2]; 1000 nM,29%
same,inhibition at 0.01 µM,[3]; 10 nM,8%
same,inhibition at 0.1 µM,[3]; 100 nM,16%
same,inhibition at 1 µM,[3]; 1000 nM,22%
same,inhibition at 0.01 µM,[4]; 10 nM,1%
same,inhibition at 0.1 µM,[4]; 100 nM,1%
same,inhibition at 1 µM,[4]; 1000 nM,5%
same,inhibition at 0.01 µM,[5]; 10 nM,4%
same,inhibition at 0.1 µM,[5]; 100 nM,5%
same,inhibition at 1 µM,[5]; 1000 nM,31%
same,inhibition at 0.01 µM,[6]; 10 nM,1%
same,inhibition at 0.1 µM,[6]; 100 nM,10%
same,inhibition at 1 µM,[6]; 1000 nM,7%
same,inhibition at 0.01 µM,[7]; 10 nM,-6%
same,inhibition at 0.1 µM,[7]; 100 nM,-8%
same,inhibition at 1 µM,[7]; 1000 nM,1%
same,inhibition at 0.01 µM,[8]; 10 nM,-4%
same,inhibition at 0.1 µM,[8]; 100 nM,-9%
same,inhibition at 1 µM,[8]; 1000 nM,-2%
same,inhibition at 0.01 µM,[9]; 10 nM,-12%
same,inhibition at 0.1 µM,[9]; 100 nM,9%
same,inhibition at 1 µM,[9]; 1000 nM,42%
same,inhibition at 0.01 µM,[10]; 10 nM,-9%
same,inhibition at 0.1 µM,[10]; 100 nM,-5%
same,inhibition at 1 µM,[10]; 1000 nM,-3%
same,inhibition at 0.01 µM,[11]; 10 nM,-3%
same,inhibition at 0.1 µM,[11]; 100 nM,4%
same,inhibition at 1 µM,[11]; 1000 nM,7%

# Source: paper PMC11233931, “Remodeling tumor‐associated macrophage for anti‐cancer effects by rational design of irreversible inhibition of mitogen‐activated protein kinase‐activated protein kinase 2” (MedComm, 2024)
